Test results reported in PubChem BioAssay (NCI).
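Grown in 96-well plates, cells were treated for 48 hours with each compound at five concentrations. Insufficient inhibition: endpoint recorded as highest concentration tested. At the GI50, growth is halved. TGI denotes the concentration required for complete inhibition of growth.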

How the values were obtained:
Test in all cases: NCI tumour cell line growth inhibition, 48 h
786-0 renal = tested on: 786-0 renal
A498 renal = tested on: A498 renal
A549 NSCLC = tested on: A549 NSCLC
ACHN renal = tested on: ACHN renal
BT-549 breast = tested on: BT-549 breast
CAKI-1 renal = tested on: CAKI-1 renal
CCRF-CEM leukemia = tested on: CCRF-CEM leukemia
COLO 205 colon = tested on: COLO 205 colon
DU-145 prostate = tested on: DU-145 prostate
EKVX NSCLC = tested on: EKVX NSCLC
HCC-2998 colon = tested on: HCC-2998 colon
HCT-116 colon = tested on: HCT-116 colon
HCT-15 colon = tested on: HCT-15 colon
HL-60(TB) leukemia = tested on: HL-60(TB) leukemia
HOP-62 NSCLC = tested on: HOP-62 NSCLC
HS 578T breast = tested on: HS 578T breast
HT29 colon = tested on: HT29 colon
IGROV1 ovarian = tested on: IGROV1 ovarian
K-562 leukemia = tested on: K-562 leukemia
KM12 colon = tested on: KM12 colon
LOX IMVI melanoma = tested on: LOX IMVI melanoma
M14 melanoma = tested on: M14 melanoma
MALME-3M melanoma = tested on: MALME-3M melanoma
MCF7 breast = tested on: MCF7 breast
MDA-MB-231 breast = tested on: MDA-MB-231 breast
MDA-MB-435 = tested on: MDA-MB-435
MOLT-4 leukemia = tested on: MOLT-4 leukemia
NCI-H226 lung = tested on: NCI-H226 lung
NCI-H23 lung = tested on: NCI-H23 lung
NCI-H460 lung = tested on: NCI-H460 lung
NCI-H522 lung = tested on: NCI-H522 lung
NCI/ADR-RES ovarian = tested on: NCI/ADR-RES ovarian
OVCAR-3 ovarian = tested on: OVCAR-3 ovarian
OVCAR-4 ovarian = tested on: OVCAR-4 ovarian
OVCAR-5 ovarian = tested on: OVCAR-5 ovarian
OVCAR-8 ovarian = tested on: OVCAR-8 ovarian
PC-3 prostate = tested on: PC-3 prostate
RPMI-8226 leukemia = tested on: RPMI-8226 leukemia
RXF 393 renal = tested on: RXF 393 renal
SF-268 CNS = tested on: SF-268 CNS
SF-295 CNS = tested on: SF-295 CNS
SF-539 CNS = tested on: SF-539 CNS
SK-MEL-2 melanoma = tested on: SK-MEL-2 melanoma
SK-MEL-28 melanoma = tested on: SK-MEL-28 melanoma
SK-MEL-5 melanoma = tested on: SK-MEL-5 melanoma
SK-OV-3 ovarian = tested on: SK-OV-3 ovarian
SN12C renal = tested on: SN12C renal
SNB-19 CNS = tested on: SNB-19 CNS
SNB-75 CNS = tested on: SNB-75 CNS
SR leukemia = tested on: SR leukemia
SW-620 colon = tested on: SW-620 colon
T-47D breast = tested on: T-47D breast
TK-10 renal = tested on: TK-10 renal
U251 CNS = tested on: U251 CNS
UACC-257 melanoma = tested on: UACC-257 melanoma
UACC-62 melanoma = tested on: UACC-62 melanoma
UO-31 renal = tested on: UO-31 renal

For `CS(=O)(=O)CCN(CC#N)Cc1ccc(-c2ccc3ncnc(Nc4ccc(OCc5cccc(F)c5)c(Cl)c4)c3c2)o1`, the GI50 (786-0 renal) was 14.9 µM, the TGI (786-0 renal) was > 25 µM and the GI50 (A498 renal) was 4.29 µM. The TGI (A498 renal) was > 23.7 µM, the GI50 (A549 NSCLC) was 14.6 µM and the TGI (A549 NSCLC) was > 25 µM. The GI50 (ACHN renal) was 1.73 µM, the TGI (ACHN renal) was > 25 µM and the GI50 (BT-549 breast) was 15.6 µM. The TGI (BT-549 breast) was > 25 µM, the GI50 (CAKI-1 renal) was 0.896 µM and the TGI (CAKI-1 renal) was > 25 µM. For the same compound, the GI50 (CCRF-CEM leukemia) was 9.45 µM, the TGI (CCRF-CEM leukemia) was > 25 µM and the GI50 (COLO 205 colon) was > 19.1 µM. The TGI (COLO 205 colon) was > 25 µM, the GI50 (DU-145 prostate) was 10.5 µM and the TGI (DU-145 prostate) was > 25 µM. The GI50 (EKVX NSCLC) was 0.313 µM, the TGI (EKVX NSCLC) was > 25 µM and the GI50 (HCC-2998 colon) was 15.1 µM. For the same compound, the TGI (HCC-2998 colon) was > 25 µM, the GI50 (HCT-116 colon) was 11 µM and the TGI (HCT-116 colon) was > 25 µM. For the same compound, the GI50 (HCT-15 colon) was 10.2 µM, the TGI (HCT-15 colon) was > 25 µM and the GI50 (HL-60(TB) leukemia) was 11.2 µM. For the same compound, the TGI (HL-60(TB) leukemia) was > 25 µM, the GI50 (HOP-62 NSCLC) was > 25 µM and the TGI (HOP-62 NSCLC) was > 25 µM. The GI50 (HS 578T breast) was 6.13 µM, the TGI (HS 578T breast) was > 20.4 µM and the GI50 (HT29 colon) was 10.3 µM. For the same compound, the TGI (HT29 colon) was > 25 µM, the GI50 (IGROV1 ovarian) was 6.25 µM and the TGI (IGROV1 ovarian) was > 25 µM. The GI50 (K-562 leukemia) was 9.98 µM, the TGI (K-562 leukemia) was > 25 µM and the GI50 (KM12 colon) was 9.34 µM. The TGI (KM12 colon) was > 25 µM, the GI50 (LOX IMVI melanoma) was 6.52 µM and the TGI (LOX IMVI melanoma) was 19.8 µM. The GI50 (M14 melanoma) was 11.7 µM, the TGI (M14 melanoma) was > 25 µM and the GI50 (MALME-3M melanoma) was 14.9 µM. For the same compound, the TGI (MALME-3M melanoma) was > 25 µM, the GI50 (MCF7 breast) was 8.66 µM and the TGI (MCF7 breast) was > 25 µM. For the same compound, the GI50 (MDA-MB-231 breast) was 8.35 µM, the TGI (MDA-MB-231 breast) was > 25 µM and the GI50 (MDA-MB-435) was 11 µM. The TGI (MDA-MB-435) was > 25 µM, the GI50 (MOLT-4 leukemia) was 8.81 µM and the TGI (MOLT-4 leukemia) was > 25 µM. The GI50 (NCI-H226 lung) was > 25 µM, the TGI (NCI-H226 lung) was > 25 µM and the GI50 (NCI-H23 lung) was 13.2 µM. For the same compound, the TGI (NCI-H23 lung) was > 25 µM, the GI50 (NCI-H460 lung) was 10.9 µM and the TGI (NCI-H460 lung) was > 25 µM. The GI50 (NCI-H522 lung) was 4.3 µM, the TGI (NCI-H522 lung) was > 18.5 µM and the GI50 (NCI/ADR-RES ovarian) was 8.17 µM. For the same compound, the TGI (NCI/ADR-RES ovarian) was > 25 µM, the GI50 (OVCAR-3 ovarian) was 10.6 µM and the TGI (OVCAR-3 ovarian) was > 25 µM. The GI50 (OVCAR-4 ovarian) was 11.4 µM, the TGI (OVCAR-4 ovarian) was > 25 µM and the GI50 (OVCAR-5 ovarian) was 7.89 µM. The TGI (OVCAR-5 ovarian) was > 25 µM, the GI50 (OVCAR-8 ovarian) was 9.75 µM and the TGI (OVCAR-8 ovarian) was > 25 µM. The GI50 (PC-3 prostate) was 10.9 µM, the TGI (PC-3 prostate) was > 25 µM and the GI50 (RPMI-8226 leukemia) was 11.7 µM. For the same compound, the TGI (RPMI-8226 leukemia) was > 25 µM, the GI50 (RXF 393 renal) was 10.8 µM and the TGI (RXF 393 renal) was > 23.5 µM. The GI50 (SF-268 CNS) was 16 µM, the TGI (SF-268 CNS) was > 25 µM and the GI50 (SF-295 CNS) was 24.7 µM. For the same compound, the TGI (SF-295 CNS) was > 25 µM, the GI50 (SF-539 CNS) was > 25 µM and the TGI (SF-539 CNS) was > 25 µM. For the same compound, the GI50 (SK-MEL-2 melanoma) was 17.3 µM, the TGI (SK-MEL-2 melanoma) was > 25 µM and the GI50 (SK-MEL-28 melanoma) was > 25 µM. For the same compound, the TGI (SK-MEL-28 melanoma) was > 25 µM, the GI50 (SK-MEL-5 melanoma) was 4.91 µM and the TGI (SK-MEL-5 melanoma) was > 25 µM. The GI50 (SK-OV-3 ovarian) was 0.107 µM, the TGI (SK-OV-3 ovarian) was > 25 µM and the GI50 (SN12C renal) was 12.7 µM. The TGI (SN12C renal) was > 25 µM, the GI50 (SNB-19 CNS) was > 25 µM and the TGI (SNB-19 CNS) was > 25 µM. For the same compound, the GI50 (SNB-75 CNS) was > 17.1 µM, the TGI (SNB-75 CNS) was > 25 µM and the GI50 (SR leukemia) was 8.93 µM. The TGI (SR leukemia) was > 25 µM, the GI50 (SW-620 colon) was 11.7 µM and the TGI (SW-620 colon) was > 25 µM. The GI50 (T-47D breast) was 5.48 µM, the TGI (T-47D breast) was > 23.7 µM and the GI50 (TK-10 renal) was 1.19 µM. The TGI (TK-10 renal) was > 25 µM, the GI50 (U251 CNS) was 15.2 µM and the TGI (U251 CNS) was > 25 µM. For the same compound, the GI50 (UACC-257 melanoma) was > 25 µM, the TGI (UACC-257 melanoma) was > 25 µM and the GI50 (UACC-62 melanoma) was > 22.3 µM. For the same compound, the TGI (UACC-62 melanoma) was > 25 µM, the GI50 (UO-31 renal) was 5.56 µM and the TGI (UO-31 renal) was > 25 µM.
